Four substances from patent publication US8592374B2, “Neurotrophic peptides” (Research Foundation for Mental Hygiene, Inc., priority 2007, dated 2013) can be followed below.

Assay [1] concerns dentate gyrus progenitor cells. The experiment in a line: Cell proliferation (BrdU labeled cells) in the dentate gyrus of mice given CNTF peptides i.p. The class given is in vivo. The following applies: for proliferation of dentate gyrus progenitor cells: BrdU labeling, 8-10 month old female C57BL6 mice.
Text: (§1) All experiments involving mice were done on 8-10 month old female retired breeders of C57BL6 background. A total of 33 mice were divided into 10 groups of 3 animals each (except control group which had 6 mice). The groups are described in Table 1. Details of CNTF peptides are described in Table 2.
(§2) The animals were kept in groups of 3 per cage. The mice were given daily intraperitoneal injections of four CNTF peptides either separately or in a mixture for 2 weeks as described in Table 1. From day 2, BrdU (Bromodeoxyuridine; 150 mg/Kg) was added to the injections. The animals were sacrificed 24 hours after the last injection. Briefly, the animals were perfused transcardially with PBS and their brains taken out and dissected into halves. One hemisphere from each animal was frozen for biochemical analysis and the other was fixed in 4% paraformaldehyde for 48 hours followed by equilibration in 30% sucrose in PBS overnight. These were then processed for immunohistochemistry.
Fixed tissues were cut into 40 μm sections on a freezing sliding microtome. One in 5 sections per brain was processed for BrdU staining and visualized by immunoflorecence. Cell counting was done on these sections to determine the number of BrdU labeled cells (representing newly born cells) in the dentate gyrus of the hippocampus. The area of counting was limited to the granule cell layer and the subgranular zone (a two-nucleus thick layer adjacent to the granule cell layer). For counting purposes, the dentate gyrus was divided into two areas, the outer granule cell layer (oGCL) consisting of one half of the granule cell layer, and the subgranular zone (SGZ) of the inner half (towards the hilus) of the granule cell layer plus a two-nucleus thick layer adjacent to the outer border of the hilus. Cell counting was done on confocal images of the sections according to the optical dissector principle. Volumetric analysis was carried out with the help of Image Pro software.
as §2, with “table” for “Table”, “injection (FIG. 1).” for “injection.”
(§3) Fixed tissues were cut into 40 μm sections on a freezing sliding microtome. One in 5 sections per brain was processed for BrdU staining and visualized by immunoflorecence. Cell counting was done on these sections to determine the number of BrdU labeled cells (representing newly born cells) in the dentate gyrus of the hippocampus. The area of counting was limited to the granule cell layer and the subgranular zone (a two-nucleus thick layer adjacent to the granule cell layer). For counting purposes, the dentate gyrus was divided into two areas, the outer granule cell layer (oGCL) consisting of out half of the granule cell layer, and the […] comprising of the inner half (towards the hilus) of the granule cell layer plus a two-nucleus thick layer adjacent to the outer border of the hilus. Cell counting was done on confocal images of the sections according to the optical dissector principle. Volumetric analysis was carried out with the help of Image Pro software.
For orientation: Dividing cells build labelled thymidine or BrdU into new DNA.

The test system of assay [2] is dentate gyrus progenitors. Nature of the assay: DCX expression in BrdU labeled progenitors in the dentate gyrus. The following applies: 14 day treatment group. In kind it is in vivo, mice.
Text: as §1
as §2, with “table” for “Table”, “injection (FIG. 1).” for “injection.”
as §3

Assay [3] relates to neural progenitor cells of the dentate gyrus. The experiment in a line: Stereological counts of BrdU-IR cells in subregions of the hippocampus, 30-day pellets. In kind it is in vivo, mice. Here is the method:
All in vivo studies for characterization of peptides (stereology and behavioral analysis) were performed on 8-10-month-old female retired breeders of C57Bl6 background. The animals were acclimatized for at least 3 weeks to exclude occasional pregnant mice from the studies. Mice were group-housed (3 animals per cage) with a 12:12 light:dark cycle and with free access to food and water. All procedures were conducted in accordance with approved protocols from our institutional Animal Welfare Committee.
(§4) To study neurogenesis, mice received subcutaneous implants of extended release depot pellets containing either CNTF peptides 6a or 6c for 30 days of continuous dosing (Innovative Research of America, Sarasota, Fla.). For control groups, the pellets consisted of the carrier biopolymer only. For implantation, the mice were anesthetized with 2.5% Avertin (0.38 ml for a 25 g animal). Under sterile conditions, the pellets were then subcutaneously implanted along the anterolateral aspect of the right shoulder with a precision trochar (Innovative Research of America). The animals were then transferred to the animal colony after recovery from anesthesia. There were no complications associated with the implantation and treatment. BrdU was given as two daily i.p. injections (100 mg/kg/dose) for five days starting on day 2 of peptide treatment. Neurogenesis was assessed in the dentate gyrus (DG) by counting the number of BrdU-immunoreactive (BrdU-IR), BrdU-DCX-IR and BrdU-NeuN-IR cells in various layers of the DG. Employing principles of unbiased stereology, the optical fractionator method was used to estimate cell counts for the DG.
At the end of treatment, all animals were anesthetized with an overdose of sodium pentobarbital and transcardially perfused with 0.1 M PBS. After perfusion, the brains were removed from the skull, the left hemisphere was immediately frozen for future biochemical analysis and the right hemisphere was fixed in 4% paraformaldehyde in 0.1 M PBS for at least 24 hours at room temperature. Tissues were then stored in 30% sucrose solutions at 4° C. until sectioning. The brains were sectioned sagittaly on a freezing sliding microtome at […] through the entire hippocampus and the sections were stored in glycol anti-freeze solution (Ethylene glycol, glycerol and 0.1 M PBS in 3:3:4 ratio) at −20° C. till further processing.
(§5) Immunohistochemistry was performed as described elsewhere (Kuhn et al., J. Neurosci 17 (15) (1997): 5820-5829). Briefly, every 5th brain section was chosen for quantification of cell number and every 10th section was chosen for staining intensity scanning. Immunohistochemistry was performed on free floating sections. For BrdU immunohistochemistry, epitope retrieval and staining were performed as previously described (Kuhn et al., J. Neurosci 17 (15) (1997): 5820-5829).
Neurogenesis was assessed in the DG by counting the number of BrdU-immunoreactive (BrdU-IR), BrdU-DCX-IR and BrdU-NeuN-IR cells in various layers of the DG. The granule cell layer (GCL) was subdivided into an inner and outer half (iGCL and oGCL). The iGCL consisted of the subgranular zone (SGZ, defined as a 2-3 nuclei thick layer bordering the GCL) and the inner half of the GCL adjacent to the Hilus (Hil); the outer GCL (oGCL) was defined as the half of the GCL adjacent to the Molecular layer (Mol). A cell in the middle of the GCL was considered part of the iGCL and a cell bordering the GCL in the Mol was included in oGCL counts. […] Hil included the superficial polymorphic layer.
All sections were collected using the random uniform sampling scheme. For BrdU-IR cells, counting was performed on every 5th section using 40× oil objective of a Nikon 90i fluorescent microscope equipped with Nikon C1 three laser confocal system and a Nikon DS U1 digital camera. Employing principles of unbiased stereology, the optical fractionator method was used to estimate cell counts for the DG (West et al., Anat Rec 231 (1991): 482-497). […]

The test system of assay [4] is granule cell layer of the dentate gyrus. The experiment in a line: Stereological counts of DCX-, BrdU-NeuN- and c-Fos-NeuN-IR cells in the granule cell layer. The class given is in vivo, mice. As for the experimental part:
as §4
The following primary antibodies were used for immunohistochemistry: anti-BrdU (1:400; Accurate) a rat monoclonal raised against BrdU; anti-DCX (1:200; Santa Cruz Biotechnology Inc.), a goat polyclonal antibody raised against an 18-amino acid peptide representing residues […] of human doublecortin; anti-NeuN (1:500; Chemicon), a mouse monoclonal antibody raised against purified cell nuclei from mouse brain; Anti-c-Fos (Ab-5) (1:500; Calbiochem), a rabbit polyclonal antibody raised against a synthetic peptide corresponding to amino-acids 4-17 of human c-Fos; SMI52 (1:1000; Sternberger Monoclonals), a mouse monoclonal antibody specific for the mature neuronal marker MAP2a,b; anti-synaptophysin, SYN (1:200; Chemicon), a mouse monoclonal antibody raised against vesicular fraction of bovine brain. The following secondary antibodies were used: Alexa 488-conjugated goat anti-mouse IgG antibody and Alexa 594-conjugated goat anti-rabbit or anti-rat IgG antibody (Molecular Probes); biotinylated anti-rat IgG antibody and Cy5-conjugated goat anti-mouse antibody (Jackson ImmunoResearch).
as §5
For BrdU-DCX-, BrdU-NeuN-, and c-Fos-NeuN-IR cells, only GCL (consisting of iGCL and oGLC described above) was counted using 100× oil objective in every 10th section. To ensure objectivity, z-stacks were collected for each double IR cell and analyzed later by generating maximum projection and 3D constructs.

In assay [5] the test system is normal adult mice. Nature of the assay: Morris Water Maze task, CNTF 6a / CNTF 6c pellets 30 days. The class given is in vivo. Here is the method:
For behavioral studies, performance on the Morris Water Maze task was assessed in three groups of 10 mice each (placebo, CNTF6a and CNTF6c) which received peptide treatment for 30 days. To avoid daily stress due to injections, all animals undergoing behavioral studies received subcutaneous implants of CNTF 6a, CNTF 6c or placebo pellets as described above.
All animals for behavioral testing were coded such that the experimentator was blind to the assignment of the animals to specific treatment groups. The Morris Water Maze procedure was performed using a 110 cm diameter circular tank. Before training, the mice were handled gently for 2-3 min/day during 3 days to minimize non-specific stress. Acquisition was started with the submerged (invisible) escape platform in the North-East quadrant and each animal was given 60 sec to find the submerged escape platform. […] Five such acquisition trials were given on each day, for four consecutive days. A test for retention, or probe trial, was given 24 hours later. During the probe trial the mouse was allowed to swim in the tank without the escape platform for 60 seconds. This was followed by second and third probe trials 15 and 30 days from the first probe trial. Each probe trial was immediately followed by a “retraining session” consisting of 5 trials/animal to consolidate learned behavior.
The measures of learning were the time and distance swum to reach the escape platform. For retention during the probe trial, the tank was divided into four imaginary quadrants and a small zone where the escape platform had been (virtual platform). The measures of retention were the percent of time spent and the percent of distance swum in each quadrant, and the number of entries into the platform zone.
Mouse behavior in the Morris Water Maze was monitored by a Samsung Digital Camera (SDC 4304) mounted to the ceiling and tracked and timed by a SMART (Pan Lab/San Diego Instruments) version 2.0.14 software.
Since normal adult mice were used as experimental animals, it was crucial not to miss any effect on memory acquisition and learning that the 30-day peptide treatment might have had. Therefore, a partial training paradigm was used to evaluate learning and memory in the Morris Water Maze. Treated mice were trained on the Morris Water Maze for a total of 20 sessions spanning 4 days after which they were subjected to the first probe trial (P1). Two additional probe trials (P2 and P3) were administered 15 and 30 days after P1. […] Learning was evaluated in terms of latency and distance traveled to reach the invisible escape platform. Retention was measured on probe trials by the percent of time and travel distance in the target quadrant, and the number of crossings of the virtual platform.

The mark [6] stands for this setting: daily i.p. injections for 2 weeks.
[7] abbreviates: both concentrations (0.5 and 5 nmoles/animal).
Setting [8] is: 30-day treated mice (n = 5/group).

As to “CHQGCGGLFEC [Peptide 10, CNTF loop peptide, used as control]”, in assay [1] (setting [6]), the “proliferation of dentate gyrus progenitor cells” value is listed as “no effect”. Also, the “differentiation of dentate gyrus progenitors into DCX (doublecortin) expressing cells” value (from here on “differentiation”) in assay [2] was “did not have any effect”.

Take “EDQQVHFTPTEG (neurotrophic and/or neurogenic peptide) [Peptide 9]”: the “cell proliferation in the SGZ” value in assay [1] (0.5 nmoles/animal) is on record as “increased cell proliferation”. Further, in assay [1] (setting [6]), the “proliferation of dentate gyrus progenitor cells” value is listed as “statistically significant increase”. Moreover, the “differentiation” value in assay [2] is listed as “did not have any effect”.

For “IPRNEADGMPINV (neurotrophic and/or neurogenic peptide) [Peptide 5]”, in assay [1] (setting [7]), the “cell proliferation in the SGZ (subgranular zone)” value is “increased cell proliferation” and the “cell proliferation in the oGCL (outer portion of the granule cell layer)” value is on record as “increased cell proliferation”. In assay [1] (setting [6]), the “proliferation of dentate gyrus progenitor cells compared with Peptide 9” value is listed as “more proliferation than Peptide 9” and the “proliferation of dentate gyrus progenitor cells” value was “statistically significant increase”. The “differentiation” value in assay [2] is given as “did not have any effect”.

As to “V-G-D-G (VGDG; neurotrophic and/or neurogenic peptide) [CNTF 6a]”, the “BrdU-IR cell numbers in the four sub-regions of the DG” value in assay [3] (30-day pellets) is given as “no effect”. Moreover, in assay [3] (30-day pellets, 50 nmol/peptide/animal/day), the “increase of BrdU-IR cell counts in the GCL compared to placebo” value is “not significant effect”. For the same substance, in assay [3] (setting [8]), the “Stereological counts (±SEM) of BrdU-IR cells, GCL” value is reported as 493 ± 28; the “Stereological counts (±SEM) of BrdU-IR cells, Hil” value was 126 ± 8; the “Stereological counts (±SEM) of BrdU-IR cells, Mol” value is recorded as 538 ± 99; the “Stereological counts (±SEM) of BrdU-IR cells, iGCL” value is given as 382 ± 15. The “Stereological counts (±SEM) of BrdU-IR cells, oGCL” value in assay [3] (setting [8]) is recorded as 110 ± 13. Also, in assay [4] (setting [8]), the “Stereological counts (±SEM) of cells expressing DCX in the granule cell layer” value came to 360 ± 33 and the “Stereological counts (±SEM), NeuN-BrdU/BrdU in the granule cell layer” value is recorded as 19 ± 2. Further, the “Stereological counts (±SEM) of c-fos-NeuN cells in the granule cell layer” value in assay [4] (30-day treated mice (n = 5/group), basal activity) turned out to be 214 ± 27. Also, in assay [4] (30-day treatment), the “increase in BrdU-NeuN-IR cells in the GCL compared with placebo” value is “no effect” and the “increase of DCX-IR cells in the GCL compared to placebo” value is listed as “did not show any significant difference”. Moreover, in assay [5] (30-day pellets, 20 training sessions over 4 days), the “learning in the spatial reference memory task (swim latencies)” value is “no effect”. The “percent time spent in the target quadrant across three probe trials” value in assay [5] (P1, P2, P3) is “reduced this time during subsequent P2 and P3”.
